Assay results: US20050282755A1, “Compositions having antimicrobial activity and uses thereof” (priority 2004, published 2005)
Converted amounts (≈) assume the structure as drawn. Starred links: 1 amine or outer side, 2 acyl side, 3 side chain; linkers in the order of their positions; H or OH if unused. Non-standard residues stand in square brackets, D forms with d. Residues, ends and D or L forms follow the SMILES beside them. *: point of attachment. Ethylenediamine = C(CN[*:2])N[*:1]; Lauroyl = CCCCCCCCCCCC(=O)*; Hexanoyl = CCCCCC(=O)*

What was measured:
Assay type in all cases: cell-based
[1] = tested on: Staphylococcus aureus ATCC 29213; assay: MIC, NCCLS M7-A6 broth microdilution, cation-adjusted Mueller Hinton broth (Table 9, no superscript); conditions: ATCC 29213
Summary of the method: (§1)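 MIC, read as the lowest peptide concentration without visible growth compared with peptide-free wells, after overnight incubation at 37° C. Wells held cation-adjusted Mueller Hinton broth and a final inoculum of 5×10^5 to 1×10^6 CFU/mL from log-phase culture.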

[2] = tested on: Escherichia coli ATCC 25922; assay: MIC, NCCLS M7-A6 broth microdilution (Table 9, no superscript); conditions: ATCC 25922
Summary of the method: as §1

[3] = tested on: Pseudomonas aeruginosa ATCC 27853; assay: as above; conditions: ATCC 27853
Summary of the method: as §1

Salmonella dublin (Lane) = assay: as above
Summary of the method: as §1

[4] = tested on: Staphylococcus epidermidis ATCC 12228; assay: as above; conditions: ATCC 12228
Summary of the method: as §1

[5] = tested on: Propionibacterium acnes ATCC 6919; assay: MIC, agar dilution method NCCLS M11-A6, Brucella agar, anaerobic (Table 9, superscript c); conditions: ATCC 6919
Summary of the method: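 MIC taken as the lowest peptide level giving no colonies on the plate. Plates were inoculated to 1.5×10^8 CFU/milliliter, then kept anaerobically at 37° C. for 48-96 hours; method follows NCCLS M11-A6.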

[6] = tested on: Candida albicans ATCC 18804; assay: MIC in yeasts, NCCLS M27-A2 broth microdilution, RPMI 1640 (Table 9, letter e); conditions: ATCC 18804
Summary of the method: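 Plates incubated 24 to 48 hours at 37° C, with yeast seeded at 0.5×10^3–2.5×10^3 CFU/milliliter final in RPMI 1640 (glutamine, phenol red indicator). MIC was read as the lowest peptide concentration showing no visible growth.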

Row | SMILES | MIC S. aureus [1] [µg/mL] | MIC E. coli [2] [µg/mL] | MIC P. aeruginosa [3] [µg/mL] | MIC S. dublin (Salmonella dublin (Lane)) [µg/mL] | MIC S. epidermidis [4] [µg/mL] | MIC P. acnes [5] [c ug/mL] | MIC C. albicans [6] [e ug/mL]
1 | CCCCCCCCCCCC(=O)N[C@H](CO)C(=O)N[C@H](CCCNC(=N)N)C(=O)N[C@H](Cc1c[nH]c2ccccc12)C(=O)N[C@H](CCCNC(=N)N)C(=O)N[C@H](CC(=O)O)C(=O)N[C@@H](C(=O)N[C@H](C)C(=O)N[C@H](CCCNC(=N)N)C(=O)N[C@H](CC(N)=O)C(=O)N[C@H](Cc1ccccc1)C(=O)N[C@H](CCSC)C(=O)N[C@H](CCCNC(=N)N)C(N)=O)C(C)C [Peptide 131, Lauryl-srwrdvarnfmr-NH2] (Lauroyl-[dS][dR][dW][dR][dD][dV][dA][dR][dN][dF][dM][dR]-NH2) | 4 (≈ 2.25 µM) | 8 (≈ 4.51 µM) | 8 (≈ 4.51 µM) | 8 (≈ 4.51 µM) | 2 (≈ 1.13 µM) | 2 | 16
2 | CCCCCCCCCCCC(=O)N[C@H](CCCNC(=N)N)C(=O)N[C@H](CO)C(=O)N[C@H](CCCNC(=N)N)C(=O)N[C@H](CC(C)C)C(=O)N[C@H](CCCNC(=N)N)C(=O)N[C@H](CC(=O)O)C(=O)N[C@H](CC(C)C)C(=O)N[C@H](CC(C)C)C(=O)N[C@H](CCCNC(=N)N)C(=O)N[C@H](CC(N)=O)C(=O)N[C@H](CC(C)C)C(=O)N[C@H](C)C(=O)N[C@H](CCCNC(=N)N)C(N)=O [Peptide 132, Lauryl-rsrlrdllrnlar-NH2] (Lauroyl-[dR][dS][dR][dL][dR][dD][dL][dL][dR][dN][dL][dA][dR]-NH2) | 4 (≈ 2.2 µM) | 4 (≈ 2.2 µM) | 32 (≈ 17.6 µM) | 4 (≈ 2.2 µM) | 2 (≈ 1.1 µM) | 8 | 4
3 | CCCCCCCCCCCC(=O)N[C@H](CCCNC(=N)N)C(=O)N[C@H](CO)C(=O)N[C@H](CCCNC(=N)N)C(=O)N[C@H](Cc1c[nH]c2ccccc12)C(=O)N[C@H](CCCNC(=N)N)C(=O)N[C@H](CC(=O)O)C(=O)N[C@H](CC(C)C)C(=O)N[C@H](CC(C)C)C(=O)N[C@H](CCCNC(=N)N)C(=O)N[C@H](CC(N)=O)C(=O)N[C@H](CC(C)C)C(=O)N[C@H](CCSC)C(=O)N[C@H](CCCNC(=N)N)C(N)=O [Peptide 133, Lauryl-rsrwrdllrnlmr-NH2] (Lauroyl-[dR][dS][dR][dW][dR][dD][dL][dL][dR][dN][dL][dM][dR]-NH2) | 4 (≈ 2.05 µM) | 16 (≈ 8.19 µM) | 32 (≈ 16.4 µM) | 8 (≈ 4.1 µM) | 2 (≈ 1.02 µM) | 2 | 2
4 | CCCCCCCCCCCC(=O)N[C@@H](CCCNC(=N)N)C(=O)N[C@@H](CO)C(=O)N[C@@H](CCCNC(=N)N)C(=O)N[C@@H](Cc1c[nH]c2ccccc12)C(=O)N[C@@H](CCCNC(=N)N)C(=O)N[C@@H](CC(=O)O)C(=O)N[C@H](C(=O)N[C@@H](CC(C)C)C(=O)N[C@@H](CCCNC(=N)N)C(=O)N[C@@H](CC(N)=O)C(=O)N[C@@H](Cc1ccccc1)C(=O)N[C@@H](CCSC)C(=O)N[C@@H](CCCNC(=N)N)C(N)=O)C(C)C [Peptide 134, Lauryl-RSRWRDVLRNFMR-NH2] (Lauroyl-RSRWRDVLRNFMR-NH2) | 4 (≈ 2.03 µM) | 4 (≈ 2.03 µM) | 32 (≈ 16.2 µM) | 2 (≈ 1.01 µM) | 1 (≈ 0.507 µM) | 2 | 1
5 | CCCCCCCCCCCC(=O)N[C@@H](CCCNC(=N)N)C(=O)N[C@@H](CO)C(=O)N[C@@H](CCCNC(=N)N)C(=O)N[C@@H](Cc1c[nH]c2ccccc12)C(=O)N[C@@H](CCCNC(=N)N)C(=O)N[C@@H](CC(=O)O)C(=O)N[C@H](C(=O)N[C@@H](CC(C)C)C(=O)N[C@@H](CCCNC(=N)N)C(=O)N[C@@H](CC(N)=O)C(=O)N[C@@H](Cc1ccccc1)C(=O)N[C@@H](CC(C)C)C(=O)N[C@@H](CCCNC(=N)N)C(N)=O)C(C)C [Peptide 136, Lauryl-RSRWRDVLRNFLR-NH2] (Lauroyl-RSRWRDVLRNFLR-NH2) | 4 (≈ 2.05 µM) | 8 (≈ 4.09 µM) | 32 (≈ 16.4 µM) | 8 (≈ 4.09 µM) | 1 (≈ 0.511 µM) | 8 | 1
6 | CCCCCCCCCCCC(=O)N[C@@H](CCCNC(=N)N)C(=O)N[C@@H](CO)C(=O)N[C@@H](CCCNC(=N)N)C(=O)N[C@@H](Cc1c[nH]c2ccccc12)C(=O)N[C@@H](CCCNC(=N)N)C(=O)N[C@@H](CC(=O)O)C(=O)N[C@H](C(=O)N[C@@H](C)C(=O)N[C@@H](CCCNC(=N)N)C(=O)N[C@@H](CC(N)=O)C(=O)N[C@@H](Cc1c[nH]c2ccccc12)C(=O)N[C@@H](CCSC)C(=O)N[C@@H](CCCNC(=N)N)C(N)=O)C(C)C [Peptide 139, Lauryl-RSRWRDVARNWMR-NH2] (Lauroyl-RSRWRDVARNWMR-NH2) | 4 (≈ 2.03 µM) | 8 (≈ 4.06 µM) | 8 (≈ 4.06 µM) | 8 (≈ 4.06 µM) | 2 (≈ 1.02 µM) | 16 | 8
7 | CCCCCCCCCCCC(=O)N[C@@H](CCCNC(=N)N)C(=O)N[C@@H](CO)C(=O)N[C@@H](CCCNC(=N)N)C(=O)N[C@@H](Cc1c[nH]c2ccccc12)C(=O)N[C@@H](CCCNC(=N)N)C(=O)N[C@@H](CC(=O)O)C(=O)N[C@@H](Cc1c[nH]c2ccccc12)C(=O)N[C@@H](C)C(=O)N[C@@H](CCCNC(=N)N)C(=O)N[C@@H](CC(N)=O)C(=O)N[C@@H](Cc1ccccc1)C(=O)N[C@@H](CCSC)C(=O)N[C@@H](CCCNC(=N)N)C(N)=O [Peptide 140, Lauryl-RSRWRDWARNFMR-NH2] (Lauroyl-RSRWRDWARNFMR-NH2) | 2 (≈ 0.991 µM) | 4 (≈ 1.98 µM) | 8 (≈ 3.96 µM) | 4 (≈ 1.98 µM) | 2 (≈ 0.991 µM) | 16 | 2
8 | CCCCCCCCCCCC(=O)N[C@@H](CCCNC(=N)N)C(=O)N[C@@H](CO)C(=O)N[C@@H](CCCNC(=N)N)C(=O)N[C@@H](Cc1c[nH]c2ccccc12)C(=O)N[C@@H](CCCNC(=N)N)C(=O)N[C@@H](CC(=O)O)C(=O)N[C@H](C(=O)N[C@@H](C)C(=O)N[C@@H](CCCNC(=N)N)C(=O)N[C@@H](CC(N)=O)C(=O)N[C@@H](Cc1ccccc1)C(=O)N[C@@H](CCSC)C(=O)N[C@@H](CCCNC(=N)N)C(=O)N[C@@H](Cc1c[nH]c2ccccc12)C(N)=O)C(C)C [Peptide 141, Lauryl-RSRWRDVARNFMRW-NH2] (Lauroyl-RSRWRDVARNFMRW-NH2) | 16 (≈ 7.56 µM) | 16 (≈ 7.56 µM) | >64 | 16 (≈ 7.56 µM) | 4 (≈ 1.89 µM) | 32 | 2
9 | CCCCCCCCCCCC(=O)N[C@@H](CCCNC(=N)N)C(=O)N[C@@H](CO)C(=O)N[C@@H](CCCNC(=N)N)C(=O)N[C@@H](Cc1c[nH]c2ccccc12)C(=O)N[C@@H](CCCNC(=N)N)C(=O)N[C@@H](CC(=O)O)C(=O)N[C@@H](Cc1c[nH]c2ccccc12)C(=O)N[C@@H](C)C(=O)N[C@@H](CCCNC(=N)N)C(=O)N[C@@H](CC(N)=O)C(=O)N[C@@H](Cc1c[nH]c2ccccc12)C(=O)N[C@@H](CCSC)C(=O)N[C@@H](CCCNC(=N)N)C(N)=O [Peptide 143, Lauryl-RSRWRDWARNWMR-NH2] (Lauroyl-RSRWRDWARNWMR-NH2) | 4 (≈ 1.94 µM) | 4 (≈ 1.94 µM) | 16 (≈ 7.78 µM) | 4 (≈ 1.94 µM) | 2 (≈ 0.972 µM) | 2 | 4
10 | CCCCCCCCCCCC(=O)N[C@@H](CCCNC(=N)N)C(=O)N[C@H](CO)C(=O)N[C@@H](CCCNC(=N)N)C(=O)N[C@H](Cc1c[nH]c2ccccc12)C(=O)N[C@@H](CCCNC(=N)N)C(=O)N[C@H](CC(=O)O)C(=O)N[C@@H](C(=O)N[C@H](C)C(=O)N[C@@H](CCCNC(=N)N)C(=O)N[C@H](CC(N)=O)C(=O)N[C@H](Cc1ccccc1)C(=O)N[C@H](CCSC)C(=O)N[C@@H](CCCNC(=N)N)C(N)=O)C(C)C [Peptide 158, Lauryl-RsRwRdvaRnfmR-NH2] (Lauroyl-R[dS]R[dW]R[dD][dV][dA]R[dN][dF][dM]R-NH2) | 8 (≈ 4.14 µM) | 16 (≈ 8.28 µM) | 4 (≈ 2.07 µM) | 16 (≈ 8.28 µM) | 2 (≈ 1.04 µM) | 8 | 32
11 | CCCCCC(=O)NCCNC(=O)[C@H](CCCNC(=N)N)NC(=O)[C@H](CC(C)C)NC(=O)[C@H](Cc1ccccc1)NC(=O)[C@H](CC(N)=O)NC(=O)[C@H](CCCNC(=N)N)NC(=O)[C@H](C)NC(=O)[C@@H](NC(=O)[C@H](CC(=O)O)NC(=O)[C@H](CCCNC(=N)N)NC(=O)[C@H](Cc1c[nH]c2ccccc12)NC(=O)[C@H](CCCNC(=N)N)NC(=O)[C@H](CO)NC(=O)[C@@H](N)CCCNC(=N)N)C(C)C [Peptide 168, H2N-RSRWRDVARNFLR-Ethylamidohexanyl] (H-RSRWRDVARNFLR-{Ethylenediamine-Hexanoyl}; C-terminus assumed) | 16 (≈ 8.55 µM) | 2 (≈ 1.07 µM) | 32 (≈ 17.1 µM) | 16 (≈ 8.55 µM) | 1 (≈ 0.534 µM) | 64 | 32
